Measurements as given in patent US8952024B2, “Herbicidal pyrimidone derivatives” (E I du Pont de Nemours and Company, priority 2009, dated 2015).

Assays:
Experiment in all cases: Test C plant response
Type in all cases: in vivo
Settings in all cases: Postemergence, scale 0 to 100
[1] = system: spring wheat (Triticum aestivum)
Outline: (§1)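 Efficacy is a visual percent-control score (0 none, 100 complete), judged against controls 14 days after application. Compounds go on in a non-phytotoxic solvent carrier with surfactant. A dash marks a missing result.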

[2] = system: deadnettle (henbit deadnettle, Lamium amplexicaule)
Outline: as §1

[3] = system: wild radish (Raphanus raphanistrum)
Outline: as §1

[4] = system: lambsquarters (Chenopodium album)
Outline: as §1

[5] = system: chickweed (common chickweed, Stellaria media)
Outline: as §1

[6] = system: winter barley (Hordeum vulgare)
Outline: as §1

[7] = system: Italian ryegrass (Lolium multiflorum)
Outline: as §1

[8] = system: canarygrass (Phalaris minor)
Outline: as §1

[9] = system: Russian thistle (Salsola iberica)
Outline: as §1

[10] = system: bromegrass (downy bromegrass, Bromus tectorum)
Outline: as §1

[11] = system: windgrass (Apera spica-venti)
Outline: as §1

[12] = system: field poppy (Papaver rhoeas)
Outline: as §1

[13] = system: galium (catchweed bedstraw, Galium aparine)
Outline: as §1

[14] = system: wild mustard (Sinapis arvensis)
Outline: as §1

[15] = system: blackgrass (Alopecurus myosuroides)
Outline: as §1

kochia (Kochia scoparia) = system: kochia (Kochia scoparia)
Outline: as §1

Structure (SMILES): Cc1ccc(-n2c(-c3ccccc3)ncc(C(=O)C3=C(O)CCCC3=O)c2=O)cc1 [Compound 8]
- Plant response rating: Wheat, Spring ([1]; 31 g ai/ha): 5
- Plant response rating: Wheat, Spring ([1]; 16 g ai/ha): 5
- Plant response rating: Wheat, Spring ([1]; 62 g ai/ha): 5
- Plant response rating: Wheat, Spring ([1]; 125 g ai/ha): 20
- Plant response rating: Deadnettle ([2]; 31 g ai/ha): 95
- Plant response rating: Deadnettle ([2]; 16 g ai/ha): 85
- Plant response rating: Deadnettle ([2]; 62 g ai/ha): 98
- Plant response rating: Deadnettle ([2]; 125 g ai/ha): 100
- Plant response rating: Radish, Wild ([3]; 31 g ai/ha): 95
- Plant response rating: Radish, Wild ([3]; 16 g ai/ha): 85
- Plant response rating: Radish, Wild ([3]; 62 g ai/ha): 98
- Plant response rating: Radish, Wild ([3]; 125 g ai/ha): 100
- Plant response rating: Lambsquarters ([4]; 31 g ai/ha): 98
- Plant response rating: Lambsquarters ([4]; 16 g ai/ha): 98
- Plant response rating: Lambsquarters ([4]; 62 g ai/ha): 98
- Plant response rating: Lambsquarters ([4]; 125 g ai/ha): 100
- Plant response rating: Chickweed ([5]; 31 g ai/ha): 95
- Plant response rating: Chickweed ([5]; 16 g ai/ha): 95
- Plant response rating: Chickweed ([5]; 62 g ai/ha): 95
- Plant response rating: Chickweed ([5]; 125 g ai/ha): 98
- Plant response rating: Barley, Winter ([6]; 31 g ai/ha): 20
- Plant response rating: Barley, Winter ([6]; 16 g ai/ha): 0
- Plant response rating: Barley, Winter ([6]; 62 g ai/ha): 20
- Plant response rating: Barley, Winter ([6]; 125 g ai/ha): 40
- Plant response rating: Ryegrass, Italian ([7]; 31 g ai/ha): 0
- Plant response rating: Ryegrass, Italian ([7]; 16 g ai/ha): 0
- Plant response rating: Ryegrass, Italian ([7]; 62 g ai/ha): 20
- Plant response rating: Ryegrass, Italian ([7]; 125 g ai/ha): 35
- Plant response rating: Canarygrass ([8]; 31 g ai/ha): 5
- Plant response rating: Canarygrass ([8]; 16 g ai/ha): 0
- Plant response rating: Canarygrass ([8]; 62 g ai/ha): 10
- Plant response rating: Canarygrass ([8]; 125 g ai/ha): 10
- Plant response rating: Russian Thistle ([9]; 31 g ai/ha): 90
- Plant response rating: Russian Thistle ([9]; 16 g ai/ha): 90
- Plant response rating: Russian Thistle ([9]; 62 g ai/ha): 95
- Plant response rating: Russian Thistle ([9]; 125 g ai/ha): 95
- Plant response rating: Bromegrass, Downy ([10]; 31 g ai/ha): 25
- Plant response rating: Bromegrass, Downy ([10]; 16 g ai/ha): 10
- Plant response rating: Bromegrass, Downy ([10]; 62 g ai/ha): 35
- Plant response rating: Bromegrass, Downy ([10]; 125 g ai/ha): 40
- Plant response rating: Windgrass ([11]; 31 g ai/ha): 10
- Plant response rating: Windgrass ([11]; 16 g ai/ha): 0
- Plant response rating: Windgrass ([11]; 62 g ai/ha): 20
- Plant response rating: Windgrass ([11]; 125 g ai/ha): 60
- Plant response rating: Field Poppy ([12]; 31 g ai/ha): 20
- Plant response rating: Field Poppy ([12]; 16 g ai/ha): 0
- Plant response rating: Field Poppy ([12]; 62 g ai/ha): 40
- Plant response rating: Field Poppy ([12]; 125 g ai/ha): 60
- Plant response rating: Galium ([13]; 31 g ai/ha): 75
- Plant response rating: Galium ([13]; 16 g ai/ha): 50
- Plant response rating: Galium ([13]; 62 g ai/ha): 90
- Plant response rating: Galium ([13]; 125 g ai/ha): 90
- Plant response rating: Mustard, Wild ([14]; 31 g ai/ha): 95
- Plant response rating: Mustard, Wild ([14]; 62 g ai/ha): 98
- Plant response rating: Mustard, Wild ([14]; 125 g ai/ha): 98
- Plant response rating: Blackgrass ([15]; 31 g ai/ha): 30
- Plant response rating: Blackgrass ([15]; 16 g ai/ha): 20
- Plant response rating: Blackgrass ([15]; 62 g ai/ha): 35
- Plant response rating: Blackgrass ([15]; 125 g ai/ha): 35
- Plant response rating: Kochia (kochia (Kochia scoparia); 31 g ai/ha): 70
- Plant response rating: Kochia (kochia (Kochia scoparia); 16 g ai/ha): 65
- Plant response rating: Kochia (kochia (Kochia scoparia); 62 g ai/ha): 85
- Plant response rating: Kochia (kochia (Kochia scoparia); 125 g ai/ha): 90

Structure (SMILES): Cc1ccccc1-n1c(-c2ccccc2)ncc(C(=O)C2=C(O)CCCC2=O)c1=O [Compound 12]
- Plant response rating: Wheat, Spring ([1]; 31 g ai/ha): 0
- Plant response rating: Wheat, Spring ([1]; 16 g ai/ha): 0
- Plant response rating: Wheat, Spring ([1]; 62 g ai/ha): 0
- Plant response rating: Wheat, Spring ([1]; 125 g ai/ha): 0
- Plant response rating: Deadnettle ([2]; 31 g ai/ha): 100
- Plant response rating: Deadnettle ([2]; 16 g ai/ha): 100
- Plant response rating: Deadnettle ([2]; 62 g ai/ha): 100
- Plant response rating: Deadnettle ([2]; 125 g ai/ha): 100
- Plant response rating: Radish, Wild ([3]; 31 g ai/ha): 80
- Plant response rating: Radish, Wild ([3]; 16 g ai/ha): 60
- Plant response rating: Radish, Wild ([3]; 62 g ai/ha): 90
- Plant response rating: Radish, Wild ([3]; 125 g ai/ha): 90
- Plant response rating: Lambsquarters ([4]; 31 g ai/ha): 80
- Plant response rating: Lambsquarters ([4]; 16 g ai/ha): 70
- Plant response rating: Lambsquarters ([4]; 62 g ai/ha): 80
- Plant response rating: Lambsquarters ([4]; 125 g ai/ha): 95
- Plant response rating: Barley, Winter ([6]; 31 g ai/ha): 0
- Plant response rating: Barley, Winter ([6]; 16 g ai/ha): 0
- Plant response rating: Barley, Winter ([6]; 62 g ai/ha): 0
- Plant response rating: Barley, Winter ([6]; 125 g ai/ha): 0
- Plant response rating: Ryegrass, Italian ([7]; 31 g ai/ha): 0
- Plant response rating: Ryegrass, Italian ([7]; 16 g ai/ha): 0
- Plant response rating: Ryegrass, Italian ([7]; 62 g ai/ha): 0
- Plant response rating: Ryegrass, Italian ([7]; 125 g ai/ha): 0
- Plant response rating: Russian Thistle ([9]; 31 g ai/ha): 60
- Plant response rating: Russian Thistle ([9]; 16 g ai/ha): 60
- Plant response rating: Russian Thistle ([9]; 62 g ai/ha): 60
- Plant response rating: Russian Thistle ([9]; 125 g ai/ha): 70
- Plant response rating: Bromegrass, Downy ([10]; 31 g ai/ha): 10
- Plant response rating: Bromegrass, Downy ([10]; 16 g ai/ha): 0
- Plant response rating: Bromegrass, Downy ([10]; 62 g ai/ha): 15
- Plant response rating: Bromegrass, Downy ([10]; 125 g ai/ha): 20
- Plant response rating: Windgrass ([11]; 31 g ai/ha): 20
- Plant response rating: Windgrass ([11]; 16 g ai/ha): 5
- Plant response rating: Windgrass ([11]; 125 g ai/ha): 50
- Plant response rating: Galium ([13]; 31 g ai/ha): 50
- Plant response rating: Galium ([13]; 16 g ai/ha): 5
- Plant response rating: Galium ([13]; 62 g ai/ha): 60
- Plant response rating: Galium ([13]; 125 g ai/ha): 80
- Plant response rating: Mustard, Wild ([14]; 31 g ai/ha): 95
- Plant response rating: Mustard, Wild ([14]; 16 g ai/ha): 80
- Plant response rating: Mustard, Wild ([14]; 62 g ai/ha): 95
- Plant response rating: Mustard, Wild ([14]; 125 g ai/ha): 95
- Plant response rating: Blackgrass ([15]; 31 g ai/ha): 20
- Plant response rating: Blackgrass ([15]; 16 g ai/ha): 0
- Plant response rating: Blackgrass ([15]; 62 g ai/ha): 30
- Plant response rating: Blackgrass ([15]; 125 g ai/ha): 40
- Plant response rating: Kochia (kochia (Kochia scoparia); 31 g ai/ha): 10
- Plant response rating: Kochia (kochia (Kochia scoparia); 16 g ai/ha): 0
- Plant response rating: Kochia (kochia (Kochia scoparia); 62 g ai/ha): 35
- Plant response rating: Kochia (kochia (Kochia scoparia); 125 g ai/ha): 75
